Results reported in patent publication US7652037B2, “Methods of lowering lipid levels in a mammal” (City Of Hope, priority 2003, dated 2010).
Marks after values point to notes of the source that are not given here.

Experiments:
STZ-Diabetic Rats = assay: Body weight and glycemia in STZ-diabetic and control rats (Example 1); type: in vivo, rat; details: for Body Weight / HbA1c / Plasma Glucose: mean ± SD; for effect on plasma glucose and glycated hemoglobin / weight compared to the diabetic control rats: diabetic rats; for weight compared to the diabetic control rats: only LR-90 statistically significant
Procedure: Male Sprague-Dawley rats (about 175 to 200 g) were adapted for one week prior to treatment, then rendered diabetic by intra-peritoneal injection of STZ (65 mg/kg in citrate buffer, pH 4.5) after an overnight fast. Control (non-diabetic) animals were injected with the buffer only. Diabetes was confirmed by measuring the plasma glucose concentrations 7 days after Streptozotocin (STZ)-injection. Only animals with a plasma glucose concentration greater than 20 mmol were classified as diabetic and used in the study. These diabetic rats were divided randomly into an untreated diabetic control group and a diabetic treatment group. The treatment group received an LR compound at 50 mg/l in their drinking water throughout the duration of the study (32 weeks for LR-90; 30 weeks for LR-9 and LR-74). All animals were housed individually and were given free access to food and water.
Blood (from the tail vein) and urine samples were collected from rats for glycemic control analysis and albuminuria measurements. Glycemia was monitored every 8 weeks by measuring plasma glucose and glycated hemoglobin. Plasma or serum also was tested for total cholesterol and total triglycerides. Progression of renal dysfunction was assessed by measuring urinary albumin to creatinine ratio (UA/Cr) and serum or plasma creatinine. For measurement of urinary albumin and creatinine concentrations, rats were housed in metabolic cages for 24 hours and urine was collected in a collection beaker with several drops of toluene to inhibit microbial growth.
At the end of study, the rats were weighed and anaesthetized with isoflourane and blood was drawn by heart puncture and transferred into heparinized and non-heparinized vacutainer tubes on ice. These blood samples were later centifuged for plasma and serum collection respectively, and stored at −70° C. until the time of analysis. Rats were killed by over-anesthetization and cardiac puncture and the kidneys were removed immediately, weighed, decapsulated and rinsed in PBS buffer. Sections of the kidneys were stored in 10% NBF for subsequent microscopic examinations and immunohistochemistry. The tail of each individual rat was cut, removed and stored in 50 mL conical tubes at −70° C.
Statistical analyses of data presented in this example and the following examples were first analyzed by ANOVA and post-hoc comparisons between group means were analyzed using unpaired Student's t test. A p value of less than 0.05 was considered statistically significant. Data are presented as means±SD.

[1] = Kinetics of linoleic acid oxidation, TBARS; details: 5 mM linoleic acid, 1 mM compound, pH 7.4, 7 days at 37° C.
Procedure: (§1) Human LDL was isolated from plasma of healthy donors by single vertical spin centrifugation (see Chung et al., Methods Enzymol. 128:181-209, 1986) and used within 24-48 hours of preparation. LDL (50 μg/mL) was incubated at 37° C. in 50 mM chelex-treated phosphate buffer, pH 7.4, alone or in the presence of 5 μM CuCl2 or 5 μM CuCl2 plus various concentrations of the LR compounds. After 5 hours of incubation, aliquots from each reaction mixture were removed for measurement of thiobarbituric acid-reacting substances (TBARS) as described in Satoh, Clin. Chim. Acta 90:37-43, 1978. Briefly, 250 μL of 20% trichloroacetic acid was added to 500 μL of sample aliquot, followed by 750 μL of 1% […]. The samples then were vortexed and incubated in a boiling water bath for 10 minutes. Upon cooling, the samples were centrifuged for 5 minutes at 5000 rpm. Absorbance of the supernatant was taken at 532 nm, and expressed as MDA equivalents using 1,1,3,3-tetramethoxypropane as standards. For fatty acid oxidation studies, linoleic acid (5#mM) was incubated alone or in the presence of 1 mM LR compound in […] phosphate buffer, pH 7.4, for 7 days at 37° C. Aliquots from each reaction mixture were withdrawn periodically for measurement of TBARS as described above.
Aliquots were withdrawn periodically and assayed by the TBARS method as above. The MDA equivalent was estimated based on standards.

Human LDL = assay: Cu++-mediated LDL oxidation, TBARS (Example 16); details: 250 μM compound, followed for 5 hours; control lag phase about 2 hours
Procedure: as §1
Results are shown in FIG. 23A, where values are provided as means±SD of two independent experiments (n=4 for each treatment). In separate experiments, the time course for the oxidative modification fo LDL by Cu^++ in the presence of 250 μM compound was followed for 5 hours and aliquots for each time interval were assayed for TBARS. Values in FIG. 23B are means±SD of two independent experiments (n=4 per treatment).

[2] = Inhibition of copper-catalyzed oxidation of ascorbic acid (Cu2+ chelating activity); details: 500 nmol/L CuCl2, 500 μmol/L ascorbic acid, phosphate buffer pH 7.4, 60 minutes; read-out: IC50, concentration that inhibited the rate of AA oxidation by 50%
Procedure: In vitro measurement of the kinetics of inhibition of copper-catalyzed oxidation of ascorbic acid was performed according to the methods of Price et al., J. Biol. Chem. 276:48967-48972, 2001. Briefly, CuCl2 and various concentrations of inhibitor compounds were pre-incubated in chelex-treated 20 mmol/L phosphate buffer, pH 7.4, for 5 minutes. Ascorbic acid then was added (50 μL of 10 mmol/L in water) to initiate the reaction (1 mL total reaction volume). The final concentrations of CuCl2 and ascorbic acid in the reaction were 500 nmol/L and 500 μmol/L, respectively. Aliquots (135 μL) were removed at 0 and 60 minutes and transferred to autoinjector vials containing 15 μL of 10 mmol/l DTPA. Samples were analyzed by reversed phase HPLC on an XTerra™ RP18 column (250 mm×4.6 mm, 5 μm) with an XTerra™ RP18 5 μm guard column using a Waters® 2690 Separator Module equipped with auto-injector and Millenium® 32 software. Solvents and gradient were all used as described in Dillon et al., Life Sci. 72:1583-1594, 2003. The absorbance of ascorbic acid was measured at 244 nm and the peak area was obtained to estimate the percent of ascorbic acid remaining versus time. For each inhibitor compound, the concentration that inhibited the rate of AA oxidation by 50% (IC50), was calculated with respect to the control using Prism™ software.

[3] = STZ-diabetic (D) rats, 50 mg/l in drinking water, 30 weeks
[4] = non-diabetic (ND) rats, 50 mg/l in drinking water, 30 weeks
[5] = STZ-diabetic (D) rats, LR-90 50 mg/l in drinking water, 32 weeks
[6] = non-diabetic (ND) rats, LR-90 50 mg/l in drinking water, 32 weeks

| Compound | Body Weight (STZ-Diabetic Rats; [3]) [g] | HbA1c (STZ-Diabetic Rats; [3]) | Plasma Glucose (STZ-Diabetic Rats; [3]) [mmol/L] | effect on plasma glucose and glycated hemoglobin (STZ-Diabetic Rats; 50 mg/l in drinking water) | weight compared to the diabetic control rats (STZ-Diabetic Rats; 50 mg/l in drinking water) | Body Weight (STZ-Diabetic Rats; [4]) [g] | HbA1c (STZ-Diabetic Rats; [4]) [%] | Plasma Glucose (STZ-Diabetic Rats; [4]) [mmol/L] | linoleic acid (LA) oxidation, MDA equivalents [1] | time course of Cu++-mediated oxidation of LDL (Human LDL) | IC50 [2] [µM] | Body Weight (STZ-Diabetic Rats; [5]) | HbA1c (STZ-Diabetic Rats; [5]) [%] | Plasma Glucose (STZ-Diabetic Rats; [5]) [mmol/L] | Body Weight (STZ-Diabetic Rats; [6]) [g] | HbA1c (STZ-Diabetic Rats; [6]) [%] | Plasma Glucose (STZ-Diabetic Rats; [6]) [mmol/L] |
| --- | --- | --- | --- | --- | --- | --- | --- | --- | --- | --- | --- | --- | --- | --- | --- | --- | --- |
| CC(C)(Oc1ccc(NC(=O)c2ccc3ccccc3c2)cc1)C(=O)O [LR-9, 4-(2-napthylcarboxamido) phenoxyisobutyric acid] | 288.0 ± 71.8 | 1.95 ± 0.22^b % | 27.1 ± 1.3 | did not affect | moderate increase in weight | 681.0 ± 9.3 | 0.90 ± 0.08 | 8.2 ± 0.9 | totally prevented LA oxidation | significantly inhibited the rate of oxidation after 2 hours | 200 | – | – | – | – | – | – |
| CC(Oc1cccc2cccnc12)C(=O)O (stereo not drawn) [LR-74, 2-(8-quinolinoxy) propionic acid] | 314.7 ± 53.0 | 2.10 ± 0.30% | 26.9 ± 1.5 | did not affect | moderate increase in weight | 744.0 ± 51.8 | 0.87 ± 0.12 | 6.8 ± 0.8 | did not totally prevent the oxidation | no observable propagation phase | 50 | – | – | – | – | – | – |
| methylene bis(4,4′-(2-chlorophenylureidophenoxyisobutyric acid) [LR-90] | – | – | – | did not affect | moderate increase in weight | – | – | – | totally prevented LA oxidation | no observable propagation phase | 275 | 337.6 ± 26.6^c g | 3.3 ± 0.4 | 28.9 ± 3.4 | 723.0 ± 21.9 | 1.5 ± 0.1 | 6.8 ± 0.7 |
